Test results from patent US20090069417A1, “CAROTENOID OXIDATION PRODUCTS AS CHEMOPREVENTIVE AND CHEMOTHERAPEUTIC AGENTS” (priority 2005, published 2009).

Columns and labels:
[1] = tested on: WB-F344 rat liver epithelial cells; details: cited from earlier work
[2] = tested on: antioxidant response element (ARE); test: ARE reporter gene (luciferase) assay, transient transfection; type: cell-based, human; details: FIG. 1, mean of 3-6 experiments, expressed as ratio to stimulation obtained with tBHQ, compared in words
Description: ARE reporter constructs were provided by Dr. J. J. Gipp (University of Wisconsin Medical School, Madison, Wis.; Ref 18). NQO1hARE-tk-luc and GCShARE4-tk-luc contain sequences of the active response elements from the promoters of human NQO1 and GCS heavy subunit, respectively. GCShARE4m-tk-luc, a non-active mutant form of the latter construct, contains a single base mutation in the relevant sequence.
Cell transfection and reporter gene assays were generally carried out as follows. Some variations may be adopted for different cell lines: Cells were transfected using TFx-50 reagent (Promega, Madison, Wis.) with ca. 0.07 μg of DNA containing 0.05 μg of reporter plasmid and 0.02 μg of Renilla luciferase expression vector (P-RL-null vector, Promega) as an internal standard. For this purpose, cells were seeded in 24-well plates (100,000 cells per well). After 1 day, cells were rinsed twice with the appropriate culture medium without serum, followed by the addition of 0.2 mL of medium containing DNA and TFx-50 reagent at a charge ratio of 1:3. The cells were then incubated for 30 minutes at 37° C. in 95% air/5% CO2. Four hundred microliters of medium containing 3% charcoal-stripped delipidated FCS were added and incubation continued for 8 hours. This was then replaced by medium supplemented with 3% delipidated FCS and the test compounds and cells were incubated for another 16 hours. Cell extracts were prepared for luciferase reporter assay (Dual Luciferase Reporter Assay System, Promega) according to the manufacturer's instructions.
The effects of lycopene and several lycopene derivatives on antioxidant response element (ARE) induction were tested in all of the cancer cell lines mentioned above. The assay employed measures the transcriptional activity of the antioxidant response element which is activated by the Nrf2 transcription factor, and its activation by carotenoids and their derivatives. Parts of a promoter of the genes of interest were fused to a luciferase reporter gene as described in Materials and Methods. The constructs were transfected into the cells. Cells were incubated with carotenoids or derivatives and activation of transcription was measured.
The results are depicted in FIG. 1 as the mean of 3-6 experiments. The standard errors of the mean (SEs) (not shown) were not higher than 10% of the mean. In order to decrease the variation between experiments, the results are expressed as the ratio of stimulation obtained with each specific derivative to that obtained with tBHQ (a well known positive control in this system).

[3] = tested on: antioxidant response element (ARE) in MCF-7 and T47D cells; test: ARE induction in human breast cancer cell lines (FIG. 2A); type: cell-based; details: compared with lycopene
Experimental: Cell transfection and reporter gene assays were generally carried out as follows. Some variations may be adopted for different cell lines: Cells were transfected using TFx-50 reagent (Promega, Madison, Wis.) with ca. 0.07 μg of DNA containing 0.05 μg of reporter plasmid and 0.02 μg of Renilla luciferase expression vector (P-RL-null vector, Promega) as an internal standard. For this purpose, cells were seeded in 24-well plates (100,000 cells per well). After 1 day, cells were rinsed twice with the appropriate culture medium without serum, followed by the addition of 0.2 mL of medium containing DNA and TFx-50 reagent at a charge ratio of 1:3. The cells were then incubated for 30 minutes at 37° C. in 95% air/5% CO2. Four hundred microliters of medium containing 3% charcoal-stripped delipidated FCS were added and incubation continued for 8 hours. This was then replaced by medium supplemented with 3% delipidated FCS and the test compounds and cells were incubated for another 16 hours. Cell extracts were prepared for luciferase reporter assay (Dual Luciferase Reporter Assay System, Promega) according to the manufacturer's instructions. […]

MCF-7 and T47D cells = test: Cell proliferation, [3H]thymidine incorporation, mammary cancer cells (FIG. 2B); type: cell-based, human; details: compared with lycopene
Experimental: MCF-7, human mammary cancer cells were purchased from American Type Culture Collection (Rockwell, Md.). MCF-7 cells were grown in DMEM containing penicillin (100 units/mL), streptomycin (0.1 mg/mL), nystatin (12.5 Ag/mL), 0.6 μg/mL insulin, and 10% FCS. T47D, human mammary cancer cell line, were provided by Dr. Yafa Keidar (Tel-Aviv University, Israel) and were grown in DMEM medium. LNCaP human prostate cancer cells were purchased from American Type Culture Collection (Rockwell, Md.) and were grown on RPMI medium. The medium contained penicillin (100 U/ml), streptomycin (0.1 mg/ml) nystatin (12.5 μg/ml), and 10% fetal calf serum (FCS), and 6 μg/ml insulin. Prior to each experiment, the cells were depleted of steroid hormones and maintained for 3-5 days in phenol red-free DMEM supplemented with 10% DCC FCS.
MCF-7, LNCaP and T47D cells were seeded in 96-well plates. After one day, the medium was replaced with one containing the various materials. In each day of the experiment one plate was used for the thymidine incorporation assay. Thymidine incorporation was determined as follows: 2.5 μCi/well of [^3H]thymidine (specific radioactivity 5 mCi/mmol) containing cold thymidine (100 μM) was added and the plate were incubated (37° C.) for 1 hr (MCF-7 cells) or for 3 hr (LNCaP, T47D cells). […] Radioactivity was determined by a radioactive image analyzer (BAS 1000, Fuji, Japan). […]

[4] = tested on: HL-60 human promyelocytic leukemia cells; details: HL-60 cells; cited from earlier work
[5] = tested on: mammary, endometrial, lung and leukemic cancer cell growth; details: lung and leukemic cancer cells, dose-dependent, read-out: IC50, inhibition of cancer cell growth; cited from earlier work
[6] = tested on: reporter genes fused with ARE sequences; details: transiently transfected cancer cells; cited from earlier work

C\C(C=O)=C/C=C/C=C(C)/C=C/C=C(C)/C=C/C=O [2,7,11-trimethyl-tetradecahexaene-1,14-dial]
stimulation of gap junctional communication (GJC) [1]: stimulates gap junctional communication

C\C(C=O)=C/C=C/C(C)=C/C=C/C=C(C)/C=C/C=C(\C)C=O [8,8′, diapo-8,8′-lycopendial]
stimulation of transcription of ARE reporter genes [2]: much less active
ARE induction [3]: less active
inhibition of cell proliferation (MCF-7 and T47D cells): less active

C\C(C=O)=C/C=C/C=C(C)/C=C/C=C(\C)C=O [8′,12, diapo-8′,12-lycopendial]
stimulation of transcription of ARE reporter genes [2]: more active than the parent molecule lycopene
stimulation of transcription of ARE reporter genes ([2]; listed as 8′12): most active

CC(/C=C/C=O)=C\C=C\C=C(C)\C=C\C=O [10,10′, diapo-10,10′-lycopendial]
stimulation of transcription of ARE reporter genes [2]: more active than the parent molecule lycopene
stimulation of transcription of ARE reporter genes ([2]; listed as 10′10): most active
ARE induction [3]: more active than lycopene
inhibition of cell proliferation (MCF-7 and T47D cells): more active than lycopene

C\C(C=O)=C/C=C/C=C(\C)C=O [12,12′, diapo-12,12′-lycopendial]
stimulation of transcription of ARE reporter genes [2]: much less active

CC(=O)/C=C/C=C(C)/C=C/C=O [(E,E,E)-4-methyl-8-oxo-2,4,6-nonatrienal]
induction of apoptosis [4]: induces apoptosis

CC(C)=CCC/C(C)=C/C=C/C(C)=C/C=C/C(C)=C/C=C/C=C(C)/C=C/C=C(C)/C=C/C=C(\C)CCC=C(C)C [lycopene, Lycopene]
IC50 [5]: ~2000 nM
transactivation of ARE reporter genes [6]: capable of transactivating the expression of reporter genes fused with ARE sequences

diapo-8′,15-lycopendial
stimulation of transcription of ARE reporter genes [2]: more active than the parent molecule lycopene
stimulation of transcription of ARE reporter genes ([2]; listed as 8′15): also active
